Laboratory results from PubChem BioAssay AID256 (DTP/NCI, 2004).
Where “and” joins values, the source holds several entries; their conditions need not be identical. Equal values may be shown once. Inconclusive results and toxic doses are left out. How the source made its calls: active means survival T/C of 150% or more; inactive means T/C below 125% in these data.

Test system: CD2F1 mice, L1210 leukemia ip, survival T/C
Experiment: NCI In Vivo Anticancer Drug Screen. Data for tumor model L1210 Leukemia (intraperitoneal) in CD2F1 (CDF1) mice
Conditions: endpoint: mean survival time, vehicle: saline with Tween-80, higher = longer survival
Method in brief: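 Implant tumor; dose compound or vehicle; measure endpoint in both groups; report treated divided by control.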

Measured: T/C

CCC(c1ccc(OC(=O)Cc2ccc(N(CCCl)CCCl)cc2)cc1)C(CC)c1ccc(OC(=O)Cc2ccc(N(CCCl)CCCl)cc2)cc1 (configuration not stated)
inactive: dose: 3.1 mg/kg/injection, schedule: Q03HX016 (ip) 94 % of control | dose: 3.1 mg/kg/injection, schedule: Q03HX024 (ip) 100 % of control | dose: 6.3 mg/kg/injection, schedule: Q03HX008 (ip) 88 % of control | dose: 6.3 mg/kg/injection, schedule: Q03HX024 (ip) 91 % of control | dose: 12.5 mg/kg/injection, schedule: Q01DX009 (ip) 88 % of control | dose: 12.5 mg/kg/injection, schedule: Q01DX009 (sc) 100 % of control | dose: 12.5 mg/kg/injection, schedule: Q03HX024 (ip) 88 % of control | dose: 25.0 mg/kg/injection, schedule: Q01DX001 (ip) 94 % of control | dose: 25.0 mg/kg/injection, schedule: Q01DX001 (oral) 103 % of control | dose: 25.0 mg/kg/injection, schedule: Q01DX001 (sc) 91 % of control | dose: 25.0 mg/kg/injection, schedule: Q01DX009 (ip) 90 % of control | dose: 25.0 mg/kg/injection, schedule: Q01DX009 (oral) 114 % of control | dose: 25.0 mg/kg/injection, schedule: Q01DX009 (sc) 100 % of control | dose: 25.0 mg/kg/injection, schedule: Q03HX024 (ip) 88 % of control | dose: 25.0 mg/kg/injection, schedule: Q04DX003 (ip) 91 % of control | dose: 25.0 mg/kg/injection, schedule: Q08DX002 (ip) 88 % of control | dose: 50.0 mg/kg/injection, schedule: Q01DX001 (oral) 105 % of control | dose: 50.0 mg/kg/injection, schedule: Q01DX001 (sc) 88 % of control | dose: 50.0 mg/kg/injection, schedule: Q01DX009 (ip) 88 % of control | dose: 50.0 mg/kg/injection, schedule: Q01DX009 (oral) 94 % of control | dose: 50.0 mg/kg/injection, schedule: Q01DX009 (sc) 97 % of control | dose: 50.0 mg/kg/injection, schedule: Q03HX016 (ip) 88 % of control | dose: 50.0 mg/kg/injection, schedule: Q03HX024 (ip) 88 % of control | dose: 50.0 mg/kg/injection, schedule: Q04DX003 (ip) 88 % of control | dose: 50.0 mg/kg/injection, schedule: Q08DX002 (ip) 90 % of control | dose: 80.0 mg/kg/injection, schedule: Q01DX005 (ip) 96 % of control | dose: 80.0 mg/kg/injection, schedule: Q01DX009 (ip) 93 % of control | dose: 100.0 mg/kg/injection, schedule: Q01DX001 (ip) 90 % of control and 95 % of control | dose: 100.0 mg/kg/injection, schedule: Q01DX001 (oral) 105 % of control | dose: 100.0 mg/kg/injection, schedule: Q01DX001 (sc) 102 % of control | dose: 100.0 mg/kg/injection, schedule: Q01DX009 (ip) 90 % of control | dose: 100.0 mg/kg/injection, schedule: Q01DX009 (oral) 101 % of control | dose: 100.0 mg/kg/injection, schedule: Q01DX009 (sc) 100 % of control | dose: 100.0 mg/kg/injection, schedule: Q04DX002 (ip) 101 % of control | dose: 100.0 mg/kg/injection, schedule: Q04DX003 (ip) 90 % of control | dose: 100.0 mg/kg/injection, schedule: Q08DX002 (ip) 90 % of control | dose: 120.0 mg/kg/injection, schedule: Q01DX005 (ip) 96 % of control | dose: 120.0 mg/kg/injection, schedule: Q01DX009 (ip) 93 % of control | dose: 180.0 mg/kg/injection, schedule: Q01DX005 (ip) 92 % of control | dose: 180.0 mg/kg/injection, schedule: Q01DX009 (ip) 92 % of control | dose: 200.0 mg/kg/injection, schedule: Q01DX001 (ip) 90 % of control | dose: 200.0 mg/kg/injection, schedule: Q01DX001 (oral) 102 % of control | dose: 200.0 mg/kg/injection, schedule: Q01DX001 (sc) 97 % of control | dose: 200.0 mg/kg/injection, schedule: Q01DX009 (ip) 88 % of control | dose: 200.0 mg/kg/injection, schedule: Q01DX009 (oral) 100 % of control | dose: 200.0 mg/kg/injection, schedule: Q01DX009 (sc) 97 % of control | dose: 200.0 mg/kg/injection, schedule: Q04DX002 (ip) 93 % of control | dose: 200.0 mg/kg/injection, schedule: Q04DX003 (ip) 90 % of control | dose: 200.0 mg/kg/injection, schedule: Q08DX002 (ip) 87 % of control | dose: 270.0 mg/kg/injection, schedule: Q01DX005 (ip) 96 % of control | dose: 270.0 mg/kg/injection, schedule: Q01DX009 (ip) 90 % of control | dose: 400.0 mg/kg/injection, schedule: Q01DX001 (ip) 90 % of control | dose: 400.0 mg/kg/injection, schedule: Q01DX001 (oral) 103 % of control | dose: 400.0 mg/kg/injection, schedule: Q01DX001 (sc) 97 % of control | dose: 400.0 mg/kg/injection, schedule: Q01DX009 (oral) 96 % of control | dose: 400.0 mg/kg/injection, schedule: Q04DX002 (ip) 93 % of control | dose: 400.0 mg/kg/injection, schedule: Q08DX002 (ip) 90 % of control | dose: 405.0 mg/kg/injection, schedule: Q01DX005 (ip) 93 % of control | dose: 405.0 mg/kg/injection, schedule: Q01DX009 (ip) 92 % of control | dose: 800.0 mg/kg/injection, schedule: Q01DX001 (ip) 88 % of control and 90 % of control | dose: 800.0 mg/kg/injection, schedule: Q01DX001 (oral) 97 % of control | dose: 800.0 mg/kg/injection, schedule: Q01DX001 (sc) 90 % of control
